Assay results published in patent US9139587B2, “N1-pyrazolospiroketone acetyl-CoA carboxylase inhibitors” (Pfizer Inc., priority 2009, dated 2015).

Experiments:
[1] = molecular target: T1, recombinant human ACC2 (rhACC2) (Homo sapiens, UniProt O00763, V2141I); test: recombinant hACC2 Transcreener assay (direct inhibition of ACC2 activity); assay type: biochemical; details: Transcreener ADP detection FP assay, 50 μM ATP, 30 μM acetyl-CoA, 50 min at 25° C.
T1 construct: a full length Cytomax clone of ACC2 was purchased from Cambridge Bioscience Limited; made in house; host or cells: CHO cells (tetracycline-induced, pcDNA5 FRT TO-TOPO)
Outline: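 Full-length human ACC2 was expressed in CHO cells and avidin-purified. ADP formation was measured by Transcreener FP in 50 mM HEPES pH 7.2 with 30 μM acetyl-CoA, 50 μM ATP, 8 mM KHCO3 and 5 mM citrate. Reactions ran 50 min at 25 °C with 1% DMSO, then 1 h with stop/detect reagent.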

[2] = molecular target: T2, recombinant human ACC1 (rhACC1) (Homo sapiens, UniProt Q13085, DEL44-44); test: recombinant hACC1 Transcreener assay (direct inhibition of ACC1 activity); assay type: biochemical; details: Transcreener ADP detection FP assay, 50 μM ATP, 30 μM acetyl-CoA, 120 min at 25° C.
T2 construct: recombinant baculovirus containing full length human ACC1 cDNA; made in house; host or cells: SF9 insect cells (baculovirus)
Outline: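 Full-length human ACC1 from baculovirus-infected SF9 cells, dephosphorylated with lambda phosphatase. Reaction in 50 mM HEPES pH 7.2 with 30 μM acetyl-CoA, 50 μM ATP, 10 mM KHCO3, 120 min at 25° C; ADP detected by Transcreener fluorescence polarisation.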

T1 sequence (O00763 whole entry V2141I): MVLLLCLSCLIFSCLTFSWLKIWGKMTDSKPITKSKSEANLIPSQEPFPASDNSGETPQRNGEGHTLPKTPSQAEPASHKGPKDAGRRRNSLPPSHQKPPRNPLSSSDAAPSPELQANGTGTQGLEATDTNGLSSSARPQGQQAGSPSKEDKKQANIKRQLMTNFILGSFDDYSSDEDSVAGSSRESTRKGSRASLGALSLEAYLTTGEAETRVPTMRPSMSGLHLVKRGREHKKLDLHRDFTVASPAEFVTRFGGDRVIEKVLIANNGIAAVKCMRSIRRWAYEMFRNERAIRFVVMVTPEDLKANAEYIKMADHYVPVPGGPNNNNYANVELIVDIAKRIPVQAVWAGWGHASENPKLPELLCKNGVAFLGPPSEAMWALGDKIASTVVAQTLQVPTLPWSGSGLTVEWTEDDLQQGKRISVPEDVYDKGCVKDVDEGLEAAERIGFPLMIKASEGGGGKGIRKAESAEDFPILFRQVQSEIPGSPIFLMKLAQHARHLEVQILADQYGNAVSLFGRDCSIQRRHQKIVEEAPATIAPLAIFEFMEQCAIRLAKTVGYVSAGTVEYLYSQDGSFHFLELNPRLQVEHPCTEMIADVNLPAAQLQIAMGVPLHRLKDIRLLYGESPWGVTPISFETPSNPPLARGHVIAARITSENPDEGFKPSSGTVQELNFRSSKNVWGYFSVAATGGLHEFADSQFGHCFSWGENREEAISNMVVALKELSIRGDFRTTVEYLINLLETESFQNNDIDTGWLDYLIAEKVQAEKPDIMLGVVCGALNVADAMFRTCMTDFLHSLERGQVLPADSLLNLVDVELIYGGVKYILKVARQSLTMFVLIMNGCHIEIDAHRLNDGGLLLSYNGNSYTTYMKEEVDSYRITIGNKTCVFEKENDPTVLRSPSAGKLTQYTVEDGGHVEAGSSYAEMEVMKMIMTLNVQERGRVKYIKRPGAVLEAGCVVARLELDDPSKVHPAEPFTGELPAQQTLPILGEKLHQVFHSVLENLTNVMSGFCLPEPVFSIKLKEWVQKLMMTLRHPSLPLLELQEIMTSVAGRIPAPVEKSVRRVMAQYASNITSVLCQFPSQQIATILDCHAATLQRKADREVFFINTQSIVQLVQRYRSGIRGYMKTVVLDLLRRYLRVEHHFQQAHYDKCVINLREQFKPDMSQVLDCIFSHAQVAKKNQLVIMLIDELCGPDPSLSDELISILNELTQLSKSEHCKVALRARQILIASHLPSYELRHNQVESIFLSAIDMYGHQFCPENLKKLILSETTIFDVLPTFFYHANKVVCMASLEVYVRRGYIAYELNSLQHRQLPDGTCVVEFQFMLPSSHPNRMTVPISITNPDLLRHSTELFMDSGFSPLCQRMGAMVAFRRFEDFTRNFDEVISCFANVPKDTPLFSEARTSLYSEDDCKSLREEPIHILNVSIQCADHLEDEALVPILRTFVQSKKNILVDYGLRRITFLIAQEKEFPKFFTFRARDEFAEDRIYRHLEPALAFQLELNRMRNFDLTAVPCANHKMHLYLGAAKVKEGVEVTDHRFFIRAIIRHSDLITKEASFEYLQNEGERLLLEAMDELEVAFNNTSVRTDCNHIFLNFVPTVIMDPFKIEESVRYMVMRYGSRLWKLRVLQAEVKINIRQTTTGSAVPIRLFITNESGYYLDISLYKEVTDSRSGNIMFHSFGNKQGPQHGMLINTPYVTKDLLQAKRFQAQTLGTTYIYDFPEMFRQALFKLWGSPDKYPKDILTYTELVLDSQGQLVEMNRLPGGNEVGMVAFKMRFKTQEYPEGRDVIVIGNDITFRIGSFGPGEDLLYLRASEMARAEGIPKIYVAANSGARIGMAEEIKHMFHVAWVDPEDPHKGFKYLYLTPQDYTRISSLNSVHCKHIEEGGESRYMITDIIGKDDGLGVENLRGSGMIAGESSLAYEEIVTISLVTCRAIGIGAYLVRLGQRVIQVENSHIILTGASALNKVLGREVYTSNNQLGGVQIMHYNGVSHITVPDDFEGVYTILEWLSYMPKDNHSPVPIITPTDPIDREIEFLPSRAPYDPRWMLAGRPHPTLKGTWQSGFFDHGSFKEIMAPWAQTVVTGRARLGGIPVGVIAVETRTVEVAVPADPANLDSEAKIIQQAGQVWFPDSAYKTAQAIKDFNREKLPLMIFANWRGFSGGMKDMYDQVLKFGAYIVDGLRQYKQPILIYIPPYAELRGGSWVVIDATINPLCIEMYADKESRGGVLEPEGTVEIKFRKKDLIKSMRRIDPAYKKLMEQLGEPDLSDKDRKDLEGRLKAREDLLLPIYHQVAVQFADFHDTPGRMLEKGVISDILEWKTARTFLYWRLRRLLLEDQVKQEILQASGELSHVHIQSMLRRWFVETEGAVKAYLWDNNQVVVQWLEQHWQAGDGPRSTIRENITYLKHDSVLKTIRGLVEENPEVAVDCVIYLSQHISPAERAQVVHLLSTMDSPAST

SMILES	IC50 [1] [nM]	IC50 [2] [nM]
CC(C)n1ncc2c1C(=O)CC1(CCN(C(=O)c3nn(-c4ccccc4)nc3N)CC1)C2 [Example 11A-6]	459	989
CC(C)n1ncc2c1C(=O)CC1(CCN(C(=O)c3cccnc3C(N)=O)CC1)C2 [Example 11A-10]	789	6670
CC(C)(C)n1ncc2c1C(=O)CC1(CCN(C(=O)c3cccnc3C(N)=O)CC1)C2 [Example 11A-11]	1450	10600
CC(C)(C)n1ncc2c1C(=O)CC1(CCN(C(=O)c3nn(-c4ccccc4)nc3N)CC1)C2 [Example 11A-12]	850	152
Cc1cccn2cc(C(=O)N3CCC4(CC3)CC(=O)c3c(cnn3C(C)C)C4)nc12 [Example 11A-14]	253	418
Cc1cccn2cc(C(=O)N3CCC4(CC3)CC(=O)c3c(cnn3C(C)(C)C)C4)nc12 [Example 11A-16]	190	621
CC(C)(C)n1ncc2c1C(=O)CC1(CCN(C(=O)c3ccc(N4CCOCC4)nc3)CC1)C2 [Example 11A-22]	539	1260
CC(C)n1ncc2c1C(=O)CC1(CCN(C(=O)c3ccc(N4CCOCC4)nc3)CC1)C2 [Example 11A-24]	836	6060
Cc1nn(C)c(C(=O)N2CCC3(CC2)CC(=O)c2c(cnn2C(C)(C)C)C3)c1O [Example 11A-25]	745	331
Cc1ccn2cc(C(=O)N3CCC4(CC3)CC(=O)c3c(cnn3C(C)(C)C)C4)nc2c1 [Example 11A-27]	309	584
CC(C)n1ncc2c1C(=O)CC1(CCN(C(=O)c3cn4ccccc4n3)CC1)C2 [Example 11A-28]	391	917
CNc1nc(C)ccc1C(=O)N1CCC2(CC1)CC(=O)c1c(cnn1C(C)(C)C)C2 [Example 11A-30]	106	224
CC(C)(C)n1ncc2c1C(=O)CC1(CCN(C(=O)c3ccn4cncc4c3)CC1)C2 [Example 11A-32]	96.4	155
CC(C)n1ncc2c1C(=O)CC1(CCN(C(=O)c3cn4cccc4cn3)CC1)C2 [Example 11A-34]	638	2140
CC(C)n1ncc2c1C(=O)CC1(CCN(C(=O)c3c[nH]c4ccnn4c3=O)CC1)C2 [Example 11A-35]	2130	3340
CC(C)n1ncc2c1C(=O)CC1(CCN(C(=O)c3cnc(-c4ccccn4)[nH]3)CC1)C2 [Example 11A-37]	463	1030
Cc1cc(C(=O)N2CCC3(CC2)CC(=O)c2c(cnn2C(C)(C)C)C3)c(N)c(C)n1 [Example 11A-38]	1030	2170
Cc1ccn2cc(C(=O)N3CCC4(CC3)CC(=O)c3c(cnn3C(C)C)C4)nc2c1 [Example 11A-40]	588	1140
CC(C)n1ncc2c1C(=O)CC1(CCN(C(=O)c3ccc(N4CCOCC4)cn3)CC1)C2 [Example 11A-42]	2850	11700
Cc1ccc(O)c(C(=O)N2CCC3(CC2)CC(=O)c2c(cnn2C(C)(C)C)C3)n1 [Example 11A-44]	4600	4170
CC(C)(C)n1ncc2c1C(=O)CC1(CCN(C(=O)c3cn4cccc4cn3)CC1)C2 [Example 11A-45]	745	1500
CNc1nc(C)ccc1C(=O)N1CCC2(CC1)CC(=O)c1c(cnn1C(C)C)C2 [Example 11A-46]	97.1	391
CC(C)n1ncc2c1C(=O)CC1(CCN(C(=O)c3cc4cccn4cn3)CC1)C2 [Example 11A-47]	373	850
Cc1ccc(O)c(C(=O)N2CCC3(CC2)CC(=O)c2c(cnn2C(C)C)C3)n1 [Example 11A-49]	4910	13500
CC(C)(C)n1ncc2c1C(=O)CC1(CCN(C(=O)c3cnc(-c4ccccn4)[nH]3)CC1)C2 [Example 11A-50]	371	581
CC(C)(C)n1ncc2c1C(=O)CC1(CCN(C(=O)c3cc4cnccc4[nH]3)CC1)C2 [Example 11A-51]	108	110
CC(C)n1ncc2c1C(=O)CC1(CCN(C(=O)c3ccn4ccnc4c3)CC1)C2 [Example 11A-52]	176	550
CC(C)n1ncc2c1C(=O)CC1(CCN(C(=O)c3ccc(-n4cncn4)cc3)CC1)C2 [Example 11A-54]	295	1500

Stronger by IC50 [1], values ahead:

IC50 [1] [nM]	IC50 [2] [nM]	SMILES
10.4	36.8	CC(C)(C)n1ncc2c1C(=O)CC1(CCN(C(=O)c3cccc(-c4c[nH]cn4)c3)CC1)C2 [Example 11A-7]
19.7	34.4	CC(C)n1ncc2c1C(=O)CC1(CCN(C(=O)c3ccc4[nH]nc(C#N)c4c3)CC1)C2 [Example 11A-9]
43.8	112	CC(C)n1ncc2c1C(=O)CC1(CCN(C(=O)c3cccc(-c4cc[nH]n4)c3)CC1)C2 [Example 11A-15]
48.4	129	CC(C)(C)n1ncc2c1C(=O)CC1(CCN(C(=O)c3cccc(-n4cccn4)c3)CC1)C2 [Example 11A-17]
56.3	235	CC(C)n1ncc2c1C(=O)CC1(CCN(C(=O)c3ccnc(-c4cc[nH]n4)c3)CC1)C2 [Example 11A-18]
71.6	242	CC(C)(C)n1ncc2c1C(=O)CC1(CCN(C(=O)c3c[nH]c4ncccc34)CC1)C2 [Example 11A-19]
20.4	87.1	CC(C)(C)n1ncc2c1C(=O)CC1(CCN(C(=O)c3cccc(-c4cc[nH]n4)c3)CC1)C2 [Example 11A-23]
41.5	130	CC(C)(C)n1ncc2c1C(=O)CC1(CCN(C(=O)c3ccnc(-c4cc[nH]n4)c3)CC1)C2 [Example 11A-26]
64.5	151	CC(C)(C)n1ncc2c1C(=O)CC1(CCN(C(=O)c3cc(-c4cccnc4)[nH]n3)CC1)C2 [Example 11A-29]
83.4	117	CC(C)n1ncc2c1C(=O)CC1(CCN(C(=O)c3cnc4cn[nH]c4c3)CC1)C2 [Example 11A-31]
93.1	272	CC(C)n1ncc2c1C(=O)CC1(CCN(C(=O)c3cnc4[nH]cnc4c3)CC1)C2 [Example 11A-33]
75.6	194	CC(C)(C)n1ncc2c1C(=O)CC1(CCN(C(=O)c3cc4ccccn4c3)CC1)C2 [Example 11A-36]
81.3	69	CC(C)(C)n1ncc2c1C(=O)CC1(CCN(C(=O)c3cnc4[nH]cnc4c3)CC1)C2 [Example 11A-39]
30.1	122	CC(C)n1ncc2c1C(=O)CC1(CCN(C(=O)c3cccc(-c4ncc[nH]4)c3)CC1)C2 [Example 11A-41]
45.6	143	CC(C)n1ncc2c1C(=O)CC1(CCN(C(=O)c3cc4ccccn4c3)CC1)C2 [Example 11A-43]
41.2	78.9	CC(C)n1ncc2c1C(=O)CC1(CCN(C(=O)c3cc4ncccc4[nH]3)CC1)C2 [Example 11A-48]
22.8	68.3	CC(C)(C)n1ncc2c1C(=O)CC1(CCN(C(=O)c3ccc(-c4ncc[nH]4)cc3)CC1)C2 [Example 11A-53]
60.4	213	CC(C)n1ncc2c1C(=O)CC1(CCN(C(=O)c3ccc4c(c3)ncn4C)CC1)C2 [Example 11A-55]
